Measurements published in US20150141342A1, “BLOOD BORNE miRNA SIGNATURE FOR THE ACCURATE DIAGNOSIS OF PANCREATIC DUCTAL ADENOCARCINOMA” (Indiana University Research and Technology Corp., priority 2013, published 2015).

Experiments:
COLO-357 cells = assay: Matrigel transwell invasion assay, COLO-357; type: cell-based, human; settings: COLO-357 transfected with miR-10b precursor, erlotinib 2 μM; for miR-10b's effects on combined EGF-TGF-β1 actions on invasion: 1 nM EGF + 0.5 nM TGF-β1, 20 h, SB505124 10 μM
Experimental: (§1) Invasion and Migration Assays. miR-10b precursor and precursor control transfected cells (5×104) were plated in Matrigel pre-coated transwell chambers (BD Biosciences, San Jose, Calif.) and assays performed as previously reported. UO126 (1 μM) were from Alexis Biochemicals (San Diego, Calif.). Erlotinib (2 μM; Genentech, Inc., South San Francisco, Calif.), and LY294002 (10 μM; Calbiochem, San Diego, Calif.), were added to SF in the lower chamber, in the absence or presence of 1 nM EGF and/or 0.5 nM TGF-β1. Wound healing assays were performed as previously reported. Briefly, 24 hours after cell transfection with pre-miR-10b oligonucleotides, cells were serum starved overnight, and the monolayer was scratched with a 200 μL pipette tip generating two parallel wounds. Cells were then rinsed twice with HBSS and incubated for 24 h in SF media in the absence or presence of 1 nM EGF, 0.5 nM TGF-β1, or their combination, and migration was calculated as the percent change in the wound area.

PANC-1 cells = assay: Matrigel transwell invasion assay, PANC-1; type: cell-based, human; settings: PANC-1 transfected with miR-10b precursor, erlotinib 2 μM; for miR-10b's effects on combined EGF-TGF-β1 actions on invasion: 1 nM EGF + 0.5 nM TGF-β1, 20 h, SB505124 10 μM
Experimental: as §1

[1] = 1 nM EGF, 20 h, LY294002 10 μM, UO126 1 μM

Structure (SMILES)	miR-10b's effects on combined EGF-TGF-β1 actions on invasion (COLO-357 cells)	miR-10b's effects on combined EGF-TGF-β1 actions on invasion (PANC-1 cells)	EGF-induced invasion in the presence of miR-10b (COLO-357 cells; [1])	EGF-induced invasion in the presence of miR-10b (PANC-1 cells; [1])
Cc1cccc(-c2[nH]c(C(C)(C)C)nc2-c2ccc3c(c2)OCO3)n1 [SB505124]	markedly attenuated	markedly attenuated	–	–
C#Cc1cccc(Nc2ncnc3cc(OCCOC)c(OCCOC)cc23)c1 [erlotinib]	markedly attenuated	markedly attenuated	completely blocked	completely blocked
